Key:
Staphylococcus aureus = assay: MIC by microdilution method (NCCLS), S. aureus; type: cell-based
Method: Exemplary compounds of formula 1 are as follows. MIC refers to the minimal inhibitory concentration which was determined as described in Example 37.
Minimum inhibitor concentrations (MICs) were determined using the microdilution method according to National Committee for Clinical Laboratory Standards (NCCLS) procedures. Compounds were suspended in DMSO at 10 mg/ml and stored at −20° C. The range of concentrations tested was 64-0.06 μg/ml using two-fold dilutions.
To prepare the inoculum, bacterial cultures were grown overnight at 35° C. on agar plates and each organism was resuspended in 1 ml saline to obtain a 0.5 McFarlands density standard. This was subsequently diluted 1:200 into Mueller-Hinton Broth (MHB) or Haemophilus Test Medium (HTM; for Haemophilus) providing a final inoculum size of 5*10^5 cfu/ml. After inoculation with the bacteria, assay plates were incubated at 35° C. for 18-24 h. […] Gram positive and gram negative strains used included Staphylococcus aureus, Enterococcus faecium, Enterococcus faecalis, Streptococcus pneumoniae, Haemophilus influenzae, Pseudomonas aeruginosa, Escherichia coli, and E. coli (acr)—an efflux pump mutant.

SMILES: CC(=S)NC[C@H]1CN(c2ccc(C(=O)O)c(F)c2)C(=O)O1
- melting point: 180 to 182 °C

SMILES: CC(=S)NC[C@H]1CN(c2ccc(C(=O)Oc3c(F)c(F)c(F)c(F)c3F)c(F)c2)C(=O)O1
- melting point: 163 to 164 °C

SMILES: CNC(=O)c1ccc(N2C[C@H](CNC(C)=S)OC2=O)cc1F
- melting point: 176 to 177 °C

SMILES: COC(=O)c1ccc(N2C[C@H](CNC(C)=S)OC2=O)cc1F
- melting point: 152 to 154 °C

SMILES: CC(=S)NC[C@H]1CN(c2ccc(N)c(F)c2)C(=O)O1
- melting point: 137 to 188 °C

SMILES: CC(=O)Nc1ccc(N2C[C@H](CNC(C)=S)OC2=O)cc1F
- melting point: 200 to 201 °C

SMILES: CC(=S)NC[C@H]1CN(c2ccc(NC(=O)c3ccc([N+](=O)[O-])o3)c(F)c2)C(=O)O1
- melting point: 188 °C

SMILES: CC(=O)NC[C@H]1CN(c2ccc(NC(=O)c3csnn3)c(F)c2)C(=O)O1
- melting point: 233 °C

SMILES: CC(=S)NC[C@H]1CN(c2ccc(NC(=O)c3csnn3)c(F)c2)C(=O)O1
- melting point: 203 to 204 °C

SMILES: CC(=S)NC[C@H]1CN(c2ccc(N(C)C=S)c(F)c2)C(=O)O1
- melting point: 103 to 104 °C

SMILES: CC(=S)NC[C@H]1CN(c2ccc(C3=NOCCO3)c(F)c2)C(=O)O1
- melting point: 166 to 167 °C

SMILES: CC(=S)NC[C@H]1CN(c2ccc(C(=O)NN)c(F)c2)C(=O)O1
- melting point: 177 °C

SMILES: CC(=S)NC[C@H]1CN(c2ccc([S+](C)[O-])c(F)c2)C(=O)O1 (stereo partly drawn)
- melting point: 158 to 160 °C

SMILES: CC[S+]([O-])c1ccc(N2C[C@H](CNC(C)=S)OC2=O)cc1F (stereo partly drawn)
- melting point: 138 to 139 °C

SMILES: CC(=S)NC[C@H]1CN(c2ccc([S+]([O-])CCF)c(F)c2)C(=O)O1 (stereo partly drawn)
- melting point: 161 °C

SMILES: CC(=S)NC[C@H]1CN(c2ccc(S(C)(=O)=O)c(F)c2)C(=O)O1
- melting point: 177 °C

SMILES: CC(=S)NC[C@H]1CN(c2ccc(SCCCl)c(F)c2)C(=O)O1
- melting point: 134 to 135 °C

SMILES: CC(=S)NC[C@H]1CN(c2ccc(Sc3ncc([N+](=O)[O-])s3)c(F)c2)C(=O)O1
- melting point: 116 to 117 °C

SMILES: CSc1ccc(N2C[C@H](CNC(C)=S)OC2=O)cc1F
- melting point: 130 to 131 °C

SMILES: CC(=S)NC[C@H]1CN(c2ccc(N(C)S(C)(=O)=O)c(F)c2)C(=O)O1
- MIC (minimal inhibitory concentration) (Staphylococcus aureus): 4-8 Tg/mL

SMILES: CSc1ccc(N2C[C@H](CNC(C)=S)OC2=O)cc1F [drawing 18]
- MIC (minimal inhibitory concentration) (Staphylococcus aureus): 4-8 Tg/mL
